Test results taken from PubChem BioAssay AID2060484 (Molecular Pharmacology Branch, DTP, NCI, 2025).

Tested on: SUM149PT spheroids with HUVEC/MSC, viability
Test: Anticancer human tumor SUM149PT cell line growth inhibition [GQUAD];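 further: spheroids exposed to drugs for seven days before readout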;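 on viability, T/C: percent viability relative to DMSO vehicle control taken as 100%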
Settings: for IC50: curve of first compound; for viability, T/C: stronger effect = lower value
Outline: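 Viability of tumor cells grown as complex spheroids with endothelial and stromal cells, exposed to drug combinations. Top concentration at or near clinical Cmax (else 10 microM), diluted in half-log increments.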

[1] = second compound 0.0316 µM, first compound 0.0316 µM
[2] = second compound 0.0316 µM, first compound 0.1 µM
[3] = second compound 0.0316 µM, first compound 0.316 µM
[4] = second compound 0.0316 µM, first compound 1 µM
[5] = second compound 0.0316 µM, first compound 3.16 µM
[6] = second compound 0.0316 µM, first compound 10 µM
[7] = second compound 0.1 µM, first compound 0.0316 µM
[8] = second compound 0.1 µM, first compound 0.1 µM
[9] = second compound 0.1 µM, first compound 0.316 µM
[10] = second compound 0.1 µM, first compound 1 µM
[11] = second compound 0.1 µM, first compound 3.16 µM
[12] = second compound 0.1 µM, first compound 10 µM
[13] = second compound 0.316 µM, first compound 0.0316 µM
[14] = second compound 0.316 µM, first compound 0.1 µM
[15] = second compound 0.316 µM, first compound 0.316 µM
[16] = second compound 0.316 µM, first compound 1 µM
[17] = second compound 0.316 µM, first compound 3.16 µM
[18] = second compound 0.316 µM, first compound 10 µM
[19] = second compound 1 µM, first compound 0.0316 µM
[20] = second compound 1 µM, first compound 0.1 µM
[21] = second compound 1 µM, first compound 0.316 µM
[22] = second compound 1 µM, first compound 1 µM
[23] = second compound 1 µM, first compound 3.16 µM
[24] = second compound 1 µM, first compound 10 µM
[25] = second compound 3.16 µM, first compound 0.0316 µM
[26] = second compound 3.16 µM, first compound 0.1 µM
[27] = second compound 3.16 µM, first compound 0.316 µM
[28] = second compound 3.16 µM, first compound 1 µM
[29] = second compound 3.16 µM, first compound 3.16 µM
[30] = second compound 3.16 µM, first compound 10 µM
[31] = second compound 10 µM, first compound 0.0316 µM
[32] = second compound 10 µM, first compound 0.1 µM
[33] = second compound 10 µM, first compound 0.316 µM
[34] = second compound 10 µM, first compound 1 µM
[35] = second compound 10 µM, first compound 3.16 µM
[36] = second compound 10 µM, first compound 10 µM

Question: COc1ncnc(C2CC2)c1-c1ncc2cnn(Cc3ccc(-c4nc(C(F)(F)F)cn4C(C)C)cc3)c2n1 + CN(C)c1ccc(Nc2c3ccc(NC(=O)CCN4CCCC4)cc3nc3cc(NC(=O)CCN4CCCC4)ccc23)cc1 was tested. Which IC50 (second compound 0.0316 µM) did it give?
Answer: > 10000 nM

Question: And the IC50 (second compound 0.1 µM)?
Answer: > 10000 nM

Question: What about the IC50 (second compound 0.316 µM) of the same compound?
Answer: > 10000 nM

Question: And the IC50 (second compound 1 µM)?
Answer: > 10000 nM

Question: And the IC50 (second compound 3.16 µM)?
Answer: > 10000 nM

Question: And the IC50 (second compound 10 µM)?
Answer: 8650 nM

Question: What about the viability, T/C [1] of the same compound?
Answer: 101%

Question: And the viability, T/C [2]?
Answer: 91.8%

Question: What about the viability, T/C [3] of the same compound?
Answer: 84.1%

Question: And the viability, T/C [4]?
Answer: 97.1%

Question: And the viability, T/C [5]?
Answer: 89.8%

Question: What about the viability, T/C [6] of the same compound?
Answer: 98.6%

Question: And the viability, T/C [7]?
Answer: 94.8%

Question: What about the viability, T/C [8] of the same compound?
Answer: 83.2%

Question: What about the viability, T/C [9] of the same compound?
Answer: 88.7%

Question: And the viability, T/C [10]?
Answer: 80.2%

Question: And the viability, T/C [11]?
Answer: 93.4%

Question: What about the viability, T/C [12] of the same compound?
Answer: 90.5%

Question: And the viability, T/C [13]?
Answer: 90.5%

Question: And the viability, T/C [14]?
Answer: 90.5%

Question: What about the viability, T/C [15] of the same compound?
Answer: 75.7%

Question: And the viability, T/C [16]?
Answer: 74.1%

Question: What about the viability, T/C [17] of the same compound?
Answer: 88%

Question: And the viability, T/C [18]?
Answer: 89.1%

Question: What about the viability, T/C [19] of the same compound?
Answer: 79%

Question: And the viability, T/C [20]?
Answer: 88.3%

Question: And the viability, T/C [21]?
Answer: 83.5%

Question: And the viability, T/C [22]?
Answer: 67.9%

Question: What about the viability, T/C [23] of the same compound?
Answer: 64.2%

Question: What about the viability, T/C [24] of the same compound?
Answer: 75.5%

Question: What about the viability, T/C [25] of the same compound?
Answer: 82.6%

Question: And the viability, T/C [26]?
Answer: 77.8%

Question: What about the viability, T/C [27] of the same compound?
Answer: 65.1%

Question: And the viability, T/C [28]?
Answer: 74.1%

Question: What about the viability, T/C [29] of the same compound?
Answer: 72.1%

Question: And the viability, T/C [30]?
Answer: 66.9%

Question: And the viability, T/C [31]?
Answer: 84.1%

Question: What about the viability, T/C [32] of the same compound?
Answer: 69%

Question: What about the viability, T/C [33] of the same compound?
Answer: 70.5%

Question: What about the viability, T/C [34] of the same compound?
Answer: 71.8%

Question: What about the viability, T/C [35] of the same compound?
Answer: 71.8%

Question: And the viability, T/C [36]?
Answer: 46.9%

Question: For COc1ccc([C@@H](O)c2cc(-c3ncnc4cc(N5CCOCC5)ccc34)c(F)cc2Cl)nn1 + Cc1[nH]c2ccc(F)cc2c1-c1nc2c3cccnc3c3ncccc3c2[nH]1, which IC50 (second compound 0.0316 µM) is on record?
Answer: 761 nM

Question: What about the IC50 (second compound 0.1 µM) of the same compound?
Answer: 1070 nM

Question: What about the IC50 (second compound 0.316 µM) of the same compound?
Answer: 1130 nM

Question: And the IC50 (second compound 1 µM)?
Answer: 1160 nM

Question: And the IC50 (second compound 3.16 µM)?
Answer: 1050 nM

Question: What about the IC50 (second compound 10 µM) of the same compound?
Answer: 874 nM

Question: What about the viability, T/C [1] of the same compound?
Answer: 95.7%

Question: What about the viability, T/C [2] of the same compound?
Answer: 90.1%

Question: And the viability, T/C [3]?
Answer: 65.6%

Question: And the viability, T/C [4]?
Answer: 45.8%

Question: What about the viability, T/C [5] of the same compound?
Answer: 29.9%

Question: And the viability, T/C [6]?
Answer: 23.9%

Question: And the viability, T/C [7]?
Answer: 92.9%

Question: What about the viability, T/C [8] of the same compound?
Answer: 92.9%

Question: What about the viability, T/C [9] of the same compound?
Answer: 79.3%

Question: What about the viability, T/C [10] of the same compound?
Answer: 52.3%

Question: What about the viability, T/C [11] of the same compound?
Answer: 29.4%

Question: What about the viability, T/C [12] of the same compound?
Answer: 27.6%

Question: What about the viability, T/C [13] of the same compound?
Answer: 104%

Question: What about the viability, T/C [14] of the same compound?
Answer: 87.3%

Question: And the viability, T/C [15]?
Answer: 83%

Question: What about the viability, T/C [16] of the same compound?
Answer: 47.1%

Question: What about the viability, T/C [17] of the same compound?
Answer: 39.4%

Question: What about the viability, T/C [18] of the same compound?
Answer: 28.7%

Question: And the viability, T/C [19]?
Answer: 102%

Question: And the viability, T/C [20]?
Answer: 102%

Question: What about the viability, T/C [21] of the same compound?
Answer: 82.9%

Question: And the viability, T/C [22]?
Answer: 52.4%

Question: What about the viability, T/C [23] of the same compound?
Answer: 32.5%

Question: And the viability, T/C [24]?
Answer: 23.9%

Question: And the viability, T/C [25]?
Answer: 95.2%

Question: And the viability, T/C [26]?
Answer: 78.9%

Question: And the viability, T/C [27]?
Answer: 76.7%

Question: What about the viability, T/C [28] of the same compound?
Answer: 49.8%

Question: And the viability, T/C [29]?
Answer: 31.8%

Question: And the viability, T/C [30]?
Answer: 25.9%

Question: And the viability, T/C [31]?
Answer: 89.8%

Question: What about the viability, T/C [32] of the same compound?
Answer: 82.6%

Question: And the viability, T/C [33]?
Answer: 71.7%

Question: And the viability, T/C [34]?
Answer: 46.3%

Question: What about the viability, T/C [35] of the same compound?
Answer: 30.9%

Question: And the viability, T/C [36]?
Answer: 23.3%
